{
  "source": "patent US20080300180A1",
  "about": "“Growth Hormone Secretagogue Receptor 1A Ligands” (Gastrotech Pharma A/S, priority 2004, published 2008)",
  "test": "Preclinical study evaluating the long-term efficacy of subcutaneous ghrelin, GTP-5 and GTP-6 in rats (weight gain, food intake, fat pads)",
  "format": "in vivo, rat",
  "details": "for Total weight increase in the animals, Mean ± S.D.: Sprague-Dawley rats, n=8, s.c. twice daily; for Body weight gain compared with saline group (in words) / Cumulative food intake compared with control group (in words) / Epididymal fat depots (fat pad weight, in words) / Subcutaneous fat depots (fat pad weight, in words): rats, s.c. twice daily",
  "procedure": "48 (Sprauge-Dawley (SD) IGS BR) rats were used in the study. The animals were caged individually and fed a commercial diet, R34, from Lactamin AB, Sweden. They were given free access to water. All animals were allowed an acclimatisation period of a minimum of 7 days prior to the commencement of the experiment. The animals were separated in six groups (n=8) and treated twice daily with subcutaneous injections as follows: • Group 1. Control (NaCl). • Group 2. Positive control Ghrelin 200 μg/kg body weight/injection. • Group 3. GTP-5 50 μg/kg body weight/injection. • Group 4. GTP-5 200 μg/kg body weight/injection. • Group 5. GTP-6 50 μg/kg body weight/injection. • Group 6. GTP-6 200 μg/kg body weight/injection.\nThe weight of the animals, and their food and water were recorded daily. The animals were checked twice daily for change in food intake, activity and fur quality as signs of a change in general health status.\nPre-dose, day 7 and 14 the animals were anaesthetized with Isofluran and blood was collected through the orbital plexus. The blood was analysed for clinical chemistry (ASAT, ALAT, bilirubin, albumin, creatinine, LD, GGT, potassium, sodium, glucose, IgF-1, insulin and leptin) and haematology (white blood cells, red blood cells, haemoglobin, platelets and haematokrit). After blood sampling the animals were killed and epididymal, subcutaneous and retroperitoneal fat pads were dissected and weighed.",
  "key": {"[1]": {"details": "200 μg/kg body weight/injection"}, "[2]": {"details": "50 μg/kg body weight/injection (low dose)"}, "[3]": {"details": "200 μg/kg body weight/injection (high dose)"}, "[4]": {"details": "200 μg/kg body weight/injection (high dose), listed as ghrelin"}},
  "note": "Entries after “also recorded” stand apart in the source; their conditions may differ. Square brackets hold non-standard residues; d marks the D form. Ends that are not written are not given here. * marks the point of attachment. Octanoyl = CCCCCCCC(=O)*; GABA = NCCCC(=O)O",
  "data": [
    {"substance": "GABAS(CO-C7 H15)FLSPEHQRVQQRKESKKPPAKLQPR ([GABA]S(Octanoyl)FLSPEHQRVQQRKESKKPPAKLQPR) [GTP-5, 27 amino acids long, octanoyl on the serine-3 sidechain (GABA = 4-aminobutyric acid)]", "values": [
      {"measurement": "Total weight increase in the animals, Mean ± S.D.", "setting": "50 μg/kg body weight/injection", "value": "75.4 ± 14.3", "unit": "g"},
      {"measurement": "Total weight increase in the animals, Mean ± S.D.", "setting": "[1]", "value": "78.2 ± 16.3", "unit": "g"},
      {"measurement": "Body weight gain compared with saline group (in words)", "setting": "[2]", "value": "higher weight gains than saline; also recorded: associated with increases"},
      {"measurement": "Cumulative food intake compared with control group (in words)", "setting": "[2]", "value": "associated with increases"},
      {"measurement": "Body weight gain compared with saline group (in words)", "setting": "[3]", "value": "higher weight gains than saline; also recorded: associated with increases"},
      {"measurement": "Cumulative food intake compared with control group (in words)", "setting": "[3]", "value": "tended to eat more than the control group; also recorded: associated with increases"},
      {"measurement": "Epididymal fat depots (fat pad weight, in words)", "setting": "[3]", "value": "significant increase"},
      {"measurement": "Subcutaneous fat depots (fat pad weight, in words)", "setting": "[3]", "value": "significant increase; also recorded: induced an increase"}
    ]},
    {"substance": "Ghrelin: Positive control; 28 amino acid peptide hormone acylated on serine 3, endogenous GHS-R1a ligand (GSS(Octanoyl)FLSPEHQRVQQRKESKKPPAKLQPR; UniProt Q9UBU3 24-51, looked up) [reference compound]", "values": [
      {"measurement": "Total weight increase in the animals, Mean ± S.D.", "setting": "[1]", "value": "92.1 ± 9.0", "unit": "g"},
      {"measurement": "Body weight gain compared with saline group (in words)", "setting": "[3]", "value": "associated with increases"},
      {"measurement": "Cumulative food intake compared with control group (in words)", "setting": "[3]", "value": "associated with increases"},
      {"measurement": "Epididymal fat depots (fat pad weight, in words)", "setting": "[3]", "value": "significant increase"},
      {"measurement": "Subcutaneous fat depots (fat pad weight, in words)", "setting": "[3]", "value": "significant increase; also recorded: induced an increase"},
      {"measurement": "Body weight gain compared with saline group (in words)", "setting": "[4]", "value": "gained significantly more weight than the saline group"},
      {"measurement": "Cumulative food intake compared with control group (in words)", "setting": "[4]", "value": "higher cumulative food intake"}
    ]},
    {"substance": "bASS(CO-C7 H15)FLSPEHQRVQQRKESKKPPAKLQPR (XSSFLSPEHQRVQQRKESKKPPAKLQPR; N-terminal beta-alanine; octanoyl on Ser3) [GTP-6, 28 amino acids long, octanoyl group on serine-3 sidechain (bA = beta-alanine)]", "values": [
      {"measurement": "Total weight increase in the animals, Mean ± S.D.", "setting": "50 μg/kg body weight/injection", "value": "79.3 ± 10.0", "unit": "g"},
      {"measurement": "Total weight increase in the animals, Mean ± S.D.", "setting": "[1]", "value": "77.8 ± 10.2", "unit": "g"},
      {"measurement": "Body weight gain compared with saline group (in words)", "setting": "[2]", "value": "higher weight gains than saline; also recorded: associated with increases"},
      {"measurement": "Cumulative food intake compared with control group (in words)", "setting": "[2]", "value": "tended to eat more than the control group; also recorded: associated with increases"},
      {"measurement": "Subcutaneous fat depots (fat pad weight, in words)", "setting": "[2]", "value": "significant increase; also recorded: induced an increase"},
      {"measurement": "Body weight gain compared with saline group (in words)", "setting": "[3]", "value": "higher weight gains than saline; also recorded: associated with increases"},
      {"measurement": "Cumulative food intake compared with control group (in words)", "setting": "[3]", "value": "tended to eat more than the control group; also recorded: associated with increases"},
      {"measurement": "Subcutaneous fat depots (fat pad weight, in words)", "setting": "[3]", "value": "significant increase; also recorded: induced an increase"}
    ]}
  ]
}
